Structures can show the parent of a compound that is named as a salt.

One assay concerns the target T1, human 5-HT2A (Homo sapiens, UniProt P28223).
T1 construct: expressed in transfected cells; host or cells: HEK-293
The experiment in a line: 5-HT2A agonist effect measured by HTRF as changes in IP1, HEK-293 cells. The class given is cell-based. Conditions: 3.0E-05 M; control 10 μM serotonin; 30 min at 37° C.; duplicate averaged. As to the method:
Potential agonist effects of BK-5F-NM-AMT, BK-5F-NM-AMT, and BK-5F-NM-AMT at 5-HT2A receptors was measured by HTRF as changes in IPl. The effects were measured using human 5-HT2A expressed in HEK-293 cells, based on methods reported in Porter et al. British Journal of Pharmacology, 1999. 128(1), 13-20. Incubation was 30 min at 37° C. 10 μM serotonin was used as a positive control. The tryptamine derivatives were each tested at six concentrations from 3.0E-10 to 3.0E-05 M using log steps. All assays were performed in duplicate with results averaged.

Assay [1] addresses T2, Nuclear Hormone Androgen Receptor (AR) (Homo sapiens, UniProt P10275).
T2 sequence (P10275 1-920): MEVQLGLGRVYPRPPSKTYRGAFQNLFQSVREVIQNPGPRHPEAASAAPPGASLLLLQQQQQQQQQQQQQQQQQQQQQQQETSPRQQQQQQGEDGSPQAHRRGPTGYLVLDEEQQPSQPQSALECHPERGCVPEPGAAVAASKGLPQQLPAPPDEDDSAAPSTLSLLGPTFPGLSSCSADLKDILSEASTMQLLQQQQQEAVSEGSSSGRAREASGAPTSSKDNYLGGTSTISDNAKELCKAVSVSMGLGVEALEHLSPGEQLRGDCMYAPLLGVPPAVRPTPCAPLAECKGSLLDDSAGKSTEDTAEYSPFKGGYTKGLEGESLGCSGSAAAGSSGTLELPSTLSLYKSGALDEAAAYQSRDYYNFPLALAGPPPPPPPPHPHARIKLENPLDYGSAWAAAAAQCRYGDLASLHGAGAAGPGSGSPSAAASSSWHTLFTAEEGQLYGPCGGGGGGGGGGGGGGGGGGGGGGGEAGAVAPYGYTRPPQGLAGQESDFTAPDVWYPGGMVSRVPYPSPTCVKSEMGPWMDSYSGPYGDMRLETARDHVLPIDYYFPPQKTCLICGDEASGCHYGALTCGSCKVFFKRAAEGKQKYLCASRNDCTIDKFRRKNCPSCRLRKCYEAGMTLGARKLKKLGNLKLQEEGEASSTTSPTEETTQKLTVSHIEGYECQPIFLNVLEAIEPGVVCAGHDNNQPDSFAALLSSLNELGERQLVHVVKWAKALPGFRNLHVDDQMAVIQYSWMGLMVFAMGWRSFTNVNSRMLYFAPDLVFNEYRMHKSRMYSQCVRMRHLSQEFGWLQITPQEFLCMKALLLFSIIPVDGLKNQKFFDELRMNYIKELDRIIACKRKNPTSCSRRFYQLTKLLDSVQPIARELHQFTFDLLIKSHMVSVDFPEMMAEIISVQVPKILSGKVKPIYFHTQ
The experiment in a line: NHR Nuclear Translocation assay, AR. It is filed as cell-based.

For assay [2], the target named is Muscarinic acetylcholine Receptor M3 (CHRM3) (Homo sapiens, UniProt P20309). The experiment in a line: cell-based.
Chain of Muscarinic acetylcholine Receptor M3 (CHRM3) (P20309 whole entry): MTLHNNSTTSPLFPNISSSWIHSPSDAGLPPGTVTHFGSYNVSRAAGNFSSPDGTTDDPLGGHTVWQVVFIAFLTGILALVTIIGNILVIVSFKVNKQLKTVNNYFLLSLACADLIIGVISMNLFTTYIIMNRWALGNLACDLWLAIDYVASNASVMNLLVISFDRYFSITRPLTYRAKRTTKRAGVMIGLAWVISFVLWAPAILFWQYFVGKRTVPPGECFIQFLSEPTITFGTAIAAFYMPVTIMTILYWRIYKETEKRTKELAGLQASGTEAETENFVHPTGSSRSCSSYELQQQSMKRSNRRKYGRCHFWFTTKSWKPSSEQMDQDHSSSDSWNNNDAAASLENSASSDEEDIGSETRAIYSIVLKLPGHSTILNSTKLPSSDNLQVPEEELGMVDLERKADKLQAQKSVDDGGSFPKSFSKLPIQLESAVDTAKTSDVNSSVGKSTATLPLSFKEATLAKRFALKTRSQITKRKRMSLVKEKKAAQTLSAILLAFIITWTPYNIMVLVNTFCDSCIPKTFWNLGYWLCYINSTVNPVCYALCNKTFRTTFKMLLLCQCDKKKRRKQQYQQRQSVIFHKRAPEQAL
Assay [3] concerns the target T3, Dopamine transporter (DAT) (Homo sapiens, UniProt Q01959).
T3 construct: expressed in transfected cells
The assay can be described thus: Monoamine transporter uptake assay (fluorescent substrate), DAT. The class given is cell-based.

In assay [4] the target is T4, Insulin Receptor (tyrosine kinase) (INSR) (Homo sapiens, UniProt P06213).
T4 construct: made in house; host or cells: E. coli BL21-derived host (T7 phage) or HEK-293
The experiment in a line: KINOMEscan binding assay, INSR.

The target in assay [5] is T5, N-methyl-D-aspartate (NMDA) Glutamate Receptor 1A/2B (NMDAR (1A/2B)) (Homo sapiens, UniProt Q05586+Q13224).
T5 construct: expressed in transfected cells
T5 sequence (Q13224 27-1484, other chains not shown): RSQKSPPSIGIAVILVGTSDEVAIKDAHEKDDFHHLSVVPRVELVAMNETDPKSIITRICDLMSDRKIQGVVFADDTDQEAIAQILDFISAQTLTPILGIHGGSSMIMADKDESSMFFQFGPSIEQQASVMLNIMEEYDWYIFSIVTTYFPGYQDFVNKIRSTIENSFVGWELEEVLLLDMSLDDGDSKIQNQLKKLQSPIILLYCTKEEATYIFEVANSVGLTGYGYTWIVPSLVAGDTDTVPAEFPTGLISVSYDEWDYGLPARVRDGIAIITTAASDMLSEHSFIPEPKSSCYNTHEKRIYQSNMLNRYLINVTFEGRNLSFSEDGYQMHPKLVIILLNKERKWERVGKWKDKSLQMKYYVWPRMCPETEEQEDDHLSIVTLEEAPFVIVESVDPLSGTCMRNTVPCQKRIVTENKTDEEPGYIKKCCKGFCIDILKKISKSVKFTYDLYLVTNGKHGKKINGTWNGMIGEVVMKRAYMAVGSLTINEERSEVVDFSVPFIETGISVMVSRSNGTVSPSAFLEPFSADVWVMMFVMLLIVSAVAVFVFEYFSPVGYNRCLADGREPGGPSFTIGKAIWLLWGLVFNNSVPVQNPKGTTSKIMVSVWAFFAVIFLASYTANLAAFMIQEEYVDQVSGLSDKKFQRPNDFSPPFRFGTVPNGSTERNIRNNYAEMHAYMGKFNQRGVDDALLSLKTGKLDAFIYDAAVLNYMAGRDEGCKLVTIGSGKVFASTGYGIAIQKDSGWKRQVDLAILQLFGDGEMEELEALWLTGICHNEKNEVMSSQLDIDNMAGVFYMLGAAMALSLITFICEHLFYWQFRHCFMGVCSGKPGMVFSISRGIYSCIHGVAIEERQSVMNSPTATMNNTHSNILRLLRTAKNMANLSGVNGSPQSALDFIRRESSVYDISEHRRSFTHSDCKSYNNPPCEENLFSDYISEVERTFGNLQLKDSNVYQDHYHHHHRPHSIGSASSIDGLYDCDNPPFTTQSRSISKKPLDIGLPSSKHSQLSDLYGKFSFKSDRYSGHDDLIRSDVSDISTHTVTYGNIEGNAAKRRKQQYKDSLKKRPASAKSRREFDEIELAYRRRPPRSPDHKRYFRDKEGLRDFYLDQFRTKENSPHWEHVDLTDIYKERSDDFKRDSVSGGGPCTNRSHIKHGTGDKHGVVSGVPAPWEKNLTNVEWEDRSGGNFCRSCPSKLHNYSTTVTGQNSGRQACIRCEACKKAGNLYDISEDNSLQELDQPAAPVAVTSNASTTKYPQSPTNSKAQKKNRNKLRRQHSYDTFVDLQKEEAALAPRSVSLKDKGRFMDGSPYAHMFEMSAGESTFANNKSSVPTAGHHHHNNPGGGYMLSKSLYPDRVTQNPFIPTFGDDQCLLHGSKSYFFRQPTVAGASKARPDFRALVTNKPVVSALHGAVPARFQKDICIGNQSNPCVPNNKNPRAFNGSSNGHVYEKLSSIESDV
The experiment in a line: Ion channel assay, NMDAR (1A/2B). It is filed as cell-based.

The target of assay [6] is T6, Endothelin Receptor Type A (EDNRA) (Homo sapiens, UniProt P25101).
T6 sequence (P25101 21-427): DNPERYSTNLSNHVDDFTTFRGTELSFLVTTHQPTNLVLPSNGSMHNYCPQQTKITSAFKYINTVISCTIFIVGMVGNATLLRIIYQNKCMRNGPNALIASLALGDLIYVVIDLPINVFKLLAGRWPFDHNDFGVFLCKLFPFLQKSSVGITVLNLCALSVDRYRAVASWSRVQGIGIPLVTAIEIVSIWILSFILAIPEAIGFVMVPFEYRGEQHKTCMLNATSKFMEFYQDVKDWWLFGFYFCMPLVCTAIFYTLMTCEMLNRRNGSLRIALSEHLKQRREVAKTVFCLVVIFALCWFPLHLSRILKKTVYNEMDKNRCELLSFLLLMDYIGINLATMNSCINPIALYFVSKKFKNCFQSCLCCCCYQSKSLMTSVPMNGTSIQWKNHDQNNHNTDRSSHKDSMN
The experiment in a line: Calcium flux assay, EDNRA. The class given is cell-based. (In general: A change in cytosolic calcium serves as a functional read-out for many receptors and channels.)

In assay [7] the target is T7, Rho Associated Coiled-Coil Containing Protein Kinase 1 (ROCK1) (Homo sapiens, UniProt Q13464).
T7 construct: made in house; host or cells: E. coli BL21-derived host (T7 phage) or HEK-293
T7 sequence (Q13464 whole entry): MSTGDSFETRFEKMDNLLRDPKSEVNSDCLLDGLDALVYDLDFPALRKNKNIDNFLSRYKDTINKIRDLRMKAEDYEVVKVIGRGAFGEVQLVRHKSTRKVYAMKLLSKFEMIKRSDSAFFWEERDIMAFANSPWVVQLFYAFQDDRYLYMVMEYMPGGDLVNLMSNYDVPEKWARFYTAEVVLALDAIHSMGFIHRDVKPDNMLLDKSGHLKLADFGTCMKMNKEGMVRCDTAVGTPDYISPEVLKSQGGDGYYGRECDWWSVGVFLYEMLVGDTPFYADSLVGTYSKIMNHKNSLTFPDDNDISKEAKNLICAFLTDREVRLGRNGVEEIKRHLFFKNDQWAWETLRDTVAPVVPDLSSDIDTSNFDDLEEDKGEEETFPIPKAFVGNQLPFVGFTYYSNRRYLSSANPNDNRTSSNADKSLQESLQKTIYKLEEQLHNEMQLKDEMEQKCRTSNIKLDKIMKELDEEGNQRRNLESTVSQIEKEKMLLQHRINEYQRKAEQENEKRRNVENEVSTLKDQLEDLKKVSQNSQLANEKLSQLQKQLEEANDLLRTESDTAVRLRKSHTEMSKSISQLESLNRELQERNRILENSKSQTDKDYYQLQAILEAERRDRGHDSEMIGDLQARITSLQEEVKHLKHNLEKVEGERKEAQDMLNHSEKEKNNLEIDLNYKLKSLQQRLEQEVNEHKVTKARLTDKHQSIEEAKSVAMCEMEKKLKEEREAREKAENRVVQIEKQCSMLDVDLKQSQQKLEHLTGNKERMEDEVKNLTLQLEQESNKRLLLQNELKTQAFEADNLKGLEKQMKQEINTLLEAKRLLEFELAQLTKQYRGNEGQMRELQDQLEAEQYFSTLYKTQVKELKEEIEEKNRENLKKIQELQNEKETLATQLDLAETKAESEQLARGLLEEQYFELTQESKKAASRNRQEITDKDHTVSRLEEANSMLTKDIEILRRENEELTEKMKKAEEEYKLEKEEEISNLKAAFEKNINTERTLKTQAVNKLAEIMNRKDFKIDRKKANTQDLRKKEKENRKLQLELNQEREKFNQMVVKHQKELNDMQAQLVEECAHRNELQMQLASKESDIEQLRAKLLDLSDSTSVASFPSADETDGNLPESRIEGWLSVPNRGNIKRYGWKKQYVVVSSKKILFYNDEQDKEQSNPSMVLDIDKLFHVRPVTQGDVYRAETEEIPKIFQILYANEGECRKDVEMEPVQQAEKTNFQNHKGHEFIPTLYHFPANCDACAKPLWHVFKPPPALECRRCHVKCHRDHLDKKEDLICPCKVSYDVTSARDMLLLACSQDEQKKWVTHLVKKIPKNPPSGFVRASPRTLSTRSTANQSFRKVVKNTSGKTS
The experiment in a line: KINOMEscan binding assay, ROCK1.

The subject of a further assay is MDMA-trained rats. The experiment in a line: Drug discrimination in rats trained to distinguish MDMA from placebo. It is filed as in vivo. Particulars: 1, 2, and 4 mg/kg intraperitoneal.

T3 sequence (Q01959 whole entry): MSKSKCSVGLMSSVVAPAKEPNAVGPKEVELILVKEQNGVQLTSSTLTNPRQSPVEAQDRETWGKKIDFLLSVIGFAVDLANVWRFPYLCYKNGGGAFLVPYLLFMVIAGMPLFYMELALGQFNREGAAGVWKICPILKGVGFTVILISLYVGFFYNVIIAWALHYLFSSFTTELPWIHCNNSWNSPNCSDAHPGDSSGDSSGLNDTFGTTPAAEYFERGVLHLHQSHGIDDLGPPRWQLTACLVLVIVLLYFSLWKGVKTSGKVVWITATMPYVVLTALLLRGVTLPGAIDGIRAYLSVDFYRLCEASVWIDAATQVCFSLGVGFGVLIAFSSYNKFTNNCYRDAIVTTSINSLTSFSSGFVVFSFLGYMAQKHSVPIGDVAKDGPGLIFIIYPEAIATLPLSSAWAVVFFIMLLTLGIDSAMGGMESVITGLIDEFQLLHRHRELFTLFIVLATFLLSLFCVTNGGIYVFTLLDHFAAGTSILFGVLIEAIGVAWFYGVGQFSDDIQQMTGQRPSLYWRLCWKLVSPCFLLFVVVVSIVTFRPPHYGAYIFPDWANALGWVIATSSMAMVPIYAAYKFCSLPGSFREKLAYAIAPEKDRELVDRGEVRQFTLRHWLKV
T1 sequence (P28223 whole entry, looked up): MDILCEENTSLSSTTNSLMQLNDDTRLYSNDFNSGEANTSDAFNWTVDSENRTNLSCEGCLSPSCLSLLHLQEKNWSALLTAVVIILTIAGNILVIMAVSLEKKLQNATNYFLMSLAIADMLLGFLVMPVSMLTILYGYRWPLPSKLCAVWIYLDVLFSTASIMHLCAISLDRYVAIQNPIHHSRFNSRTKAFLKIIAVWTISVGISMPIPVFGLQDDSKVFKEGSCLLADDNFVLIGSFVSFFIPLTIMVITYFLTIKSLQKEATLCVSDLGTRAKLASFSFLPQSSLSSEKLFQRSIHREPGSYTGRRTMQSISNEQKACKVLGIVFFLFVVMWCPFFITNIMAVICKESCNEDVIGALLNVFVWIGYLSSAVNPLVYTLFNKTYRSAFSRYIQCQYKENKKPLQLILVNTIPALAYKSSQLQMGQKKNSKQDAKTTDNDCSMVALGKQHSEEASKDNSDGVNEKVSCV

As to `CNC(C)C(=O)c1c[nH]c2ccc(Br)cc12` (centres unmarked) [BK-5Br-NM-AMT, 1-(5-bromo-1H-indol-3-yl)-2-(methylamino) propan-1-one hydrochloride], at human 5-HT2A, the “Signal changes at the highest tested concentration” value (from here on “Signal changes”) is −1.1 % of control. Also, the EC50 in assay [1], in assay [2], in assay [5] and in [6] was more than 10 µM throughout. For the same compound, the IC50 – broadly, the concentration at which inhibition is half-maximal – was more than 10 µM in [1]; more than 10 µM in assay [2]; 4.24 µM in assay [3]; more than 10 µM in assay [4]; more than 10 µM in assay [5]; more than 10 µM in assay [6]. This compound also yielded an IC50 in assay [7] of more than 10 µM.

As to `CNC(C)C(=O)c1c[nH]c2ccc(Cl)cc12` (centres unmarked) [BK-5Cl-NM-AMT, 1-(5-chloro-1H-indol-3-yl)-2-(methylamino) propan-1-one hydrochloride], the “Signal changes” value on human 5-HT2A is 1.3 % of control. Besides, the EC50 in [1], in assay [2], in assay [5] and in assay [6] was more than 10 µM each time. The IC50 in assay [1] is more than 10 µM; in [2], more than 10 µM; in assay [3] it was 6.08 µM; in [4], more than 10 µM; in [5], more than 10 µM; in assay [6], more than 10 µM. The compound also registered an IC50 in assay [7] of more than 10 µM.

Turning to `CNC(C)C(=O)c1c[nH]c2ccc(F)cc12` (centres unmarked) [BK-5F-NM-AMT, 1-(5-Fluoro-1H-indol-3-yl)-2-(methylamino) propan-1-one hydrochloride], at human 5-HT2A, the “Signal changes” value is recorded as −0.8 % of control. In addition, the EC50 in assay [1], in assay [2], in [5] and in assay [6] was more than 10 µM each time. Further, the IC50 in assay [1], in [2], in assay [3], in assay [4], in [5] and in assay [6] was more than 10 µM in each case. Also, the IC50 in [7] was more than 10 µM. Also, the “percent responses on the MDMA-associated lever” value in the assay with MDMA-trained rats (30 min prior to test, four MDMA-trained rats) was “significantly and dose-dependently different from those of MDMA”. In the assay with MDMA-trained rats (control measure), the “rate of lever pressing (responses per second)” value is “not altered”.
